For test [1], the target named is [Pyruvate dehydrogenase (acetyl-transferring)] kinase isozyme 2, mitochondrial (Homo sapiens, UniProt Q15119). Briefly: Inhibition of recombinant human GST-tagged PDK2 expressed in baculovirus infected Sf9 cells using PDHA1 as substrate measured after 1 hr by ELISA. In general terms: ELISA stands for enzyme-linked immunosorbent assay.
In test [2] the test system is MG-63. Kind of test: Anti-proliferative activity against human MG63 cells after 72 hrs by MTT assay. It is filed as functional, cell-based. To be noted: for EC50: MG-63, 72 h.
The target in test [3] is T1, [Pyruvate dehydrogenase (acetyl-transferring)] kinase isozyme 1, mitochondrial (Homo sapiens, UniProt Q15118). To be noted: 10 mM.
T1 sequence (Q15118 whole entry): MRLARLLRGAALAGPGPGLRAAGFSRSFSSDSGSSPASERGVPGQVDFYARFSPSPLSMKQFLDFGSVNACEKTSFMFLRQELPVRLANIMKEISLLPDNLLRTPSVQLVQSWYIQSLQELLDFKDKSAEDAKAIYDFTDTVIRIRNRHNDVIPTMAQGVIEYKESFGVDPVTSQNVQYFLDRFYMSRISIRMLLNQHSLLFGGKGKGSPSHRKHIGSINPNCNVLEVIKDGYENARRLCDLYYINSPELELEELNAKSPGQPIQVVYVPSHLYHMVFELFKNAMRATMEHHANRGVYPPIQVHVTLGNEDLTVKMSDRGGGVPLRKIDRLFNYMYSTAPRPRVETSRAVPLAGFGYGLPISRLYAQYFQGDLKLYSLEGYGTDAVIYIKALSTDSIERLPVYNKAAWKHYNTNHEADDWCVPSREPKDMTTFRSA
Description: Inhibition of PDK1 in human MG63 cells assessed as reduction in pyruvate dehydrogenase complex phosphorylation at ser232 residue at 10 mM after 24 hrs by Western blot analysis
Test [4] addresses T1, [Pyruvate dehydrogenase (acetyl-transferring)] kinase isozyme 1, mitochondrial. To be noted: 10 mM. This is another data set of the same source.
Description: Inhibition of PDK1 in human MG63 cells assessed as reduction in pyruvate dehydrogenase complex phosphorylation at ser293 residue at 10 mM after 24 hrs by Western blot analysis
Test [5] shares this target. To be noted: 10 mM. This is another data set of the same source.
Description: Inhibition of PDK1 in human MG63 cells assessed as reduction in pyruvate dehydrogenase complex phosphorylation at ser232 residue at 10 mM after 12 hrs by high content analysis
Test [6] shares this target. The note with it: 10 mM. The source holds these as a separate data set.
Description: Inhibition of PDK1 in human MG63 cells assessed as reduction in pyruvate dehydrogenase complex phosphorylation at ser293 residue at 10 mM after 12 hrs by high content analysis
The target is the same in test [7]. Briefly: Inhibition of recombinant human GST-tagged PDK1 expressed in baculovirus infected Sf9 cells using PDHA1 as substrate measured after 1 hr by ELISA.
For test [8] the target is unchanged. Briefly: Inhibition of PDK1 in human MG63 cells assessed as reduction in pyruvate dehydrogenase complex phosphorylation at ser232 residue after 12 hrs by high content analysis. The format is cell-based.
For test [9] the target is unchanged. Briefly: Inhibition of PDK1 in human MG63 cells assessed as reduction in pyruvate dehydrogenase complex phosphorylation at ser293 residue at 12 uM after 12 hrs by high content analysis relative to control. The format is cell-based.
The target is the same in test [10]. Kind of test: Potency index, ratio of DCA IC50 to test compound IC50 for recombinant human GST-tagged PDK1 expressed in baculovirus infected Sf9 cells.
The target is the same in test [11]. Briefly: Inhibition of PDK1 in human MG63 cells assessed as reduction in pyruvate dehydrogenase complex phosphorylation at ser293 residue at 6 uM after 12 hrs by high content analysis relative to control. The format is cell-based.
Test [12] has the same target. Kind of test: Inhibition of PDK1 in human MG63 cells assessed as reduction in pyruvate dehydrogenase complex phosphorylation at ser293 residue after 24 hrs by Western blot analysis. The format is cell-based. A general note: Immunoblotting shows a protein as a band on a membrane.
Test [13] shares this target. Briefly: Inhibition of PDK1 in human MG63 cells assessed as reduction in pyruvate dehydrogenase complex phosphorylation at ser293 residue after 12 hrs by high content analysis. The format is cell-based.
Test [14] shares this target. Kind of test: Inhibition of PDK1 in human MG63 cells assessed as reduction in pyruvate dehydrogenase complex phosphorylation at ser293 residue at 3 uM after 12 hrs by high content analysis relative to control. The format is cell-based.
The target is the same in test [15]. Kind of test: Inhibition of recombinant human GST-tagged PDK1 expressed in baculovirus infected Sf9 cells at 10 uM using PDHA1 as substrate measured after 1 hr by ELISA relative to control.
Test [16] has the same target. Briefly: Inhibition of PDK1 in human MG63 cells assessed as reduction in pyruvate dehydrogenase complex phosphorylation at ser232 residue after 24 hrs by Western blot analysis. The format is cell-based.
The subject of test [17] is MG-63. Kind of test: Potency index, ratio of DCA EC50 to test compound EC50 for human MG63 cells. It is filed as functional.

Each structure is given as a SMILES string. Active and inactive are the calls of the source. The calls are words filed in the database; no cut-off is given here.

On to `O=C(O)C(Cl)Cl` [DICHLOROACETIC ACID], for which the IC50 (as a rule, the concentration at which inhibition is half-maximal) in test [1] worked out at 9000 µM. In addition, a half-maximal effect in the test with MG-63 [2] (EC50) was put at 15400 µM. The inhibition entry in test [3], in [4], in test [5] and in test [6] was “Active” throughout.
In the case of `COc1ccc(-c2c(C)c3ccc(OCCN4CCN(CCO)CC4)cc3oc2=O)cc1OC`, the IC50 in [1] stood at 5.2 µM; in test [7] it was 2.97 µM. Moreover, the Activity entry in the test on MG-63 [2] is “Dose-dependent effect”. Moreover, a half-maximal response in the test with MG-63 [2] (EC50) required 14.5 µM. Also, the inhibition (as a rule, the relative decrease from the control value, in per cent) in [8] is “Dose-dependent effect”; in [9] it was 78.3%; in test [11] it was 39.7%; in test [12], “Dose-dependent effect”; in [13], “Dose-dependent effect”; in test [14], 18.7%. Further, the inhibition in test [15] was 80.5%; in test [16], “Dose-dependent effect”. Moreover, in test [10], the Ratio IC50 is above 1000. Moreover, in the test with MG-63 [17], the “Ratio EC50” value is above 1000.
Take `O=c1c(-c2ccc(Br)cc2)coc2cc(OCCN3CCN(CCO)CC3)ccc12`: the IC50 in [1] was determined as 10.9 µM; in [7], 3.14 µM. Besides, in the test with MG-63 [2], the Activity entry is “Dose-dependent effect”. Besides, a half-maximal response with MG-63 [2] (EC50) required 11 µM. Moreover, the inhibition entry in [8] is “Dose-dependent effect”; in [9] it was 75.3%; in test [11] it was 49.3%; in test [12], “Dose-dependent effect”; in test [13] it was “Dose-dependent effect”; in [14], 17.6%. In addition, the figures for the inhibition in test [15] and in test [16] were 83.3% and “Dose-dependent effect”, respectively. For the same compound, the Ratio IC50 in [10] was above 1000. In the test on MG-63 [17], the “Ratio EC50” value was above 1000.

For the origin of these results see ChEMBL document CHEMBL4177695, “Identification of pyruvate dehydrogenase kinase 1 inhibitors with anti-osteosarcoma activity” (Bioorg Med Chem Lett, 2017).
